Reference: US12514928B2, “Herboxidiene antibody-drug conjugates and methods of use” (Eisai R&D Management Co., Ltd., priority 2018, dated 2026)

How the values were obtained:
[1] = in vivo; cited from earlier work
[2] = Caco-2 permeability of ADC payload; format: in vitro ADME; conditions: human; for efflux ratio at 2 h, 10 μM: B-A/A-B, read-out: ER; for Papp A→B at 2 h, 10 μM / Papp B→A at 2 h, 10 μM: payload at 10 μM; for Papp A→B at 2 h, 10 μM: apical to basolateral, read-out: Permeability Mean Caco-2 A-B Perm; for Papp B→A at 2 h, 10 μM: head incomplete (column between A-B and ER)
Protocol: 3.5.2 Caco-2 Permeability of ADC Payload
Caco-2 cells were cultured for 21 days in transwell 24-well plates at 37° C., 95% humidity, 5% CO2. Integrity of cell monolayer was confirmed by TEER (transepithelial electrical resistance) and Lucifer yellow. Payloads were spiked in duplicate at 10 μM, separately, on both sides of the cell monolayer. Permeability rates from the apical to basolateral (A-B) direction and the basolateral to apical (B-A) direction were determined by sampling aliquots from both chambers immediately after treatment (t=0) and following incubation for 2 hours. Samples were protein precipitated with organic solvent containing internal standard and analyzed by LC-MS/MS (SCI EX; API 5500). The area ratio responses of payload/internal standard over time in both directions were used to generate permeability (cm/sec) values. Efflux ratio was calculated by dividing B-A/A-B. Control compounds for low and high permeability and efflux behaved as expected.

[3] = Chemical stability of ADC payload in Mcilvane buffer pH 5.5; format: physicochemical; conditions: payload 20 μM, pH 5.5, 37° C.; for half-life at 20 μM: McIlvaine (citrate-phosphate) buffer, read-out: Stability Mean Stability t½ pH 5.5 (converted); for Stability Mean Stability % pH 5.5 t 24 h: % remaining at 24 h
Protocol: 3.5.3 Chemical Stability of ADC Payload
Herboxidiene splicing modulators were incubated in Mcilvane (Citrate-Phosphate) buffer, pH 5.5 (Boston Bioproducts; #BB-2466) at a final concentration of 20 μM (less than 0.5% DMSO from stock solution). The herboxidiene splicing modulator solution and the internal standard were pipetted into 96-well plates, ran on UPLC (Waters Acquity H class), and analyzed for initial chromatographic signal (t=0). The column was a Waters UPLC HSS T3 1.8 μm 2.1×50 mm column (#186003538). A gradient of mobile phase A from 95% to 10% was employed over 1 min, where A was 0.1% formic acid in water and mobile phase B was 0.1% formic acid in acetonitrile (flow rate 0.9 mL/min). The remainder of the herboxidiene splicing modulator solution was kept in a plate shaker at 37° C. (Eppendorf ThermoMixer). Sample analyses by UPLC were repeated at 24, 72, and 96 hours post-incubation at 37° C. The area ratio response of the herboxidiene splicing modulator and internal standard was determined for three time points: time 0, day 1, and either day 3 or day 4. Time 0 was set to 100. The area ratio responses of the later time points were compared to time 0. Percent remaining was calculated as follows: (Area Ratio day X/Area Ratio time 0)*100=% remaining. The slope of the line was calculated in Excel comparing the log of % remaining and time point.

Ad2.1 = assay: In vitro splicing (IVS) assay, qPCR-IVS-ATS, Ad2.1 substrate, HELA.2; format: biochemical; conditions: payload, read-out: qPCR-IVS-ATS GMean IC50 (nM) Ad2.1 HELA.2
NCIH1650.1 = assay: Herboxidiene splicing modulator cell potency, CTGlo-ATS, NCIH1650.1, 72 h; format: cell-based; conditions: for CTGIo-ATS GMean LD50 (nM) 72 h NCIH1650.1 / CTGIo-ATS Mean MinResponse % 72 h NCIH1650.1: payload; for GI50: read-out: CTGIo-ATS GMean GI50 (nM) 72 h NCIH1650.1
Ad2.2 pre-mRNA = assay: In vitro splicing (IVS) assay with HeLa nuclear extract, RT-qPCR of spliced product; format: biochemical; conditions: payload, HELA.2, read-out: qPCR-IVS-ATS GMean IC50 (nM) Ad2.2 HELA.2
Protocol: 2.1 In Vitro Splicing (IVS)
To evaluate payload activity in a cell-free system, an in vitro splicing assay was performed. The payloads were incubated with nuclear extracts and pre-mRNA substrate minigenes.
HeLa nuclear extract preparation: HeLa S3 cell pellets were resuspended in hypotonic buffer (10 mM HEPES pH 7.9, 1.5 mM MgCl2, 10 mM KCl, 0.2 mM PMSF, 0.5 mM DTT) and the suspension was brought up to a total of 5 packed cell volume (PCV). After centrifugation, the supernatant was discarded, and the cells were brought up to 3 PCV with hypotonic buffer and incubated on ice for 10 min. Cells were lysed using a dounce homogenizer and then centrifuged. The supernatant was discarded, and the pellet was resuspended with […] packed nuclear volume (PNV) of low salt buffer (20 mM HEPES pH 7.9, 1.5 mM MgCl2, 20 mM KCl, 0.2 mM EDTA, 25% glycerol, 0.2 mM PMSF, 0.5 mM DTT), followed by 1/2 PNV of high salt buffer (same as low salt buffer except 1.4 M KCl). The nuclei were gently mixed for 30 min before centrifuging. The supernatant (nuclear extract) was then dialyzed into storage buffer (20 mM HEPES pH 7.9, 100 mM KCl, 0.2 mM EDTA, 20% glycerol, 0.2 mM PMSF, 0.5 mM DTT). Protein concentration was determined using NanoDrop 8000 UV-Vis spectrophotometer (ThermoFisher Scientific).
IVS: All Ad2-derived sequences (Pellizzoni et al. (1998) Cell 95(5):615-24) were cloned into pcDNA3.1(+) vector (Promega) using 5′ EcoRI and 3′ Xbal restriction sites. The plasmids were linearized using Xbal and used as DNA templates in in vitro transcription reactions. The FtzΔi intron-less plasmid (Luo and Reed (1999) 96(26):14937-42) was linearized using EcoRI. All RNAs were in vitro transcribed and then purified using MEGAScript T7 (Invitrogen) and MegaClear (Invitrogen) kits, respectively. For splicing reactions using Ad2 variant pre-mRNAs, […] were prepared using 8 μg nuclear extracts prepared from HeLa S3, 2 ng pre-mRNA, 0.2 ng FTZΔi, and varying concentrations of compounds or DMSO. After a 15 min pre-incubation at 30° C., 1 μL splicing activation buffer (0.5 mM ATP, 20 mM creatine phosphate, 1.6 mM MgCl2) was added, and the reactions were incubated for 90 min at 30° C. The reactions were then quenched with 13 μL DMSO, and 25 nL was used for RT-qPCR. RT-qPCR reactions were prepared using TaqMan RNA-to-CT 1-step kit (Life Technologies), RNA from splicing reactions, Ad2 (forward: […]; reverse: […]; probe: CTGTTGGGCTCGCGGTTG) and Ftz (forward: […]; reverse: […]; probe: […]) mRNA primer-probe sets. Prism 7 (Graphpad) was used for non-linear regression curve fitting of the formed spliced product and normalized to the control (DMSO) sample.

THP1.1 = assay: Herboxidiene splicing modulator cell potency, CTGlo-ATS, THP1.1, 72 h; format: cell-based; conditions: for CTGIo-ATS GMean LD50 (nM) 72 h THP1.1 / CTGIo-ATS Mean MinResponse % 72 h THP1.1: payload; for GI50: read-out: CTGIo-ATS GMean GI50 (nM) 72 h THP1.1
SF3b complex = SF3b complex (Homo sapiens, UniProt O75533+Q7RTV0); assay: Payload binding to the SF3b complex (SF3B1 binding); conditions: SF3B1 (WT), HELA.2, read-out: SPA-ATS GMean IC50 (nM) SF3B1 (WT) HELA.2
Protocol: Exemplary herboxidiene spliceosome modulator payloads used in the preparation of ADCs were profiled. Payloads were evaluated for binding to the SF3b complex, in vitro splicing activity, and ability to inhibit cell growth.

Compound | plasma half-life [1] | efflux ratio at 2 h, 10 μM [2] | Papp A→B at 2 h, 10 μM [2] [×10⁻⁶ cm/s] | Papp B→A at 2 h, 10 μM [2] [×10⁻⁶ cm/s] | half-life at 20 μM [3] [h] | Stability Mean Stability % pH 5.5 t 24 h [3] [%] | IC50 (Ad2.1) [nM] | CTGIo-ATS GMean LD50 (nM) 72 h NCIH1650.1 (NCIH1650.1) [nM] | CTGIo-ATS Mean MinResponse % 72 h NCIH1650.1 (NCIH1650.1) [%] | GI50 (NCIH1650.1) [nM] | IC50 (Ad2.2 pre-mRNA) [nM] | CTGIo-ATS GMean LD50 (nM) 72 h THP1.1 (THP1.1) [nM] | CTGIo-ATS Mean MinResponse % 72 h THP1.1 (THP1.1) [%] | GI50 (THP1.1) [nM] | IC50 (SF3b complex) [nM]
Ipilimumab: fully human anti-CTLA4 antibody, IgG1 | 288 to 336 h | – | – | – | – | – | – | – | – | – | – | – | – | – | –
CO[C@H]([C@@H](C)[C@H]1O[C@]1(C)C[C@H](C)/C=C/C=C(\C)[C@H]1O[C@@H](CC(=O)O)C[C@@H](OC(=O)N2CCNCC2)[C@@H]1C)[C@@H](C)O [Compound H1, 2-((2R,4R,5S,6S)-6-((S,2E,4E)-7-((2R,3R)-3-((2R,3R,4R)-4-hydroxy-3-methoxypentan-2-yl)-2-methyloxiran-2-yl)-6-methylhepta-2,4-dien-2-yl)-5-methyl-4-((piperazine-1-carbonyl)oxy)tetrahydro-2H-pyran-2-yl)acetic acid] | – | 1.27 | 0.263 | 0.334 | 84 | 79 | 72.6 | >10000 | 10.179 | 182 | 33.7 | 697.273 | −84.238 | 114 | 11.7
CO[C@H]([C@@H](C)[C@H]1O[C@]1(C)C[C@H](C)/C=C/C=C(\C)[C@H]1O[C@@H](CNC(=O)CCCCCOC(=O)N2CCNCC2)CC[C@@H]1C)[C@@H](C)O [Compound H5, 6-((((2R,5S,6S)-6-((S,2E,4E)-7-((2R,3R)-3-((2R,3R,4R)-4-hydroxy-3-methoxypentan-2-yl)-2-methyloxiran-2-yl)-6-methylhepta-2,4-dien-2-yl)-5-methyltetrahydro-2H-pyran-2-yl)methyl)amino)-6-oxohexyl piperazine-1-carboxylate] | – | 22.7 | 1.04 | 23.6 | > 168 | >100 | 30.3 | >10000 | −25.308 | 0.407 | 17.8 | 3.415 | −103.352 | 0.433 | 12.9
tremelimumab: fully human anti-CTLA4 antibody, IgG2 | approximately 22 days | – | – | – | – | – | – | – | – | – | – | – | – | – | –
